One block for each molecule: values may come before it. No end group written: not given here.
Legend:
[1] = tested on: CD8+ T cells (IFNγ production); assay: IFNγ ELISpot of peptide-induced CD8+ T cells; format: cell-based, human; details: for IFNγ production by CD8+ T cells generated to the peptide: normal donors, two rounds of stimulation, 24 h on ELISpot plate
Procedure: Figure 5 Production of IFNγ by CD8^+ T cells was induced in response to MUC1 peptides. Following two rounds of stimulation, CD8^+ cells were maintained for 24 h on an ELISpot plate. Spot numbers were determined using computer assisted video image analysis by Zellnet Consulting Inc. There were no significance differences compared to the negative peptide (p > 0.05).
IFNγ ELISpot plates from Mabtech (Stockholm, Sweden) were used to detect IFNγ producing MUC1-specific CTLs. The assay was performed using the capture IFNγ antibody as recommended by the manufacturer. Day five post R2-stimulation, the CTLs were washed three times and 1 × 10^5 cells were transferred to the washed and blocked IFNγ ELISpot plates and incubated at 37 °C in a 5% CO2 incubator for 24 h. After incubation the plates were washed with PBS, incubated with alkaline phosphatase-conjugated IFNγ antibody at room temperature for two hours and then spots were detected with BCIP/NBT substrate. Spot numbers were determined using computer assisted video image analysis by Zellnet Consulting Inc. (Fort Lee, NJ, USA).

[2] = target: HLA-A*0201 molecules (Homo sapiens, UniProt P04439, D140Y/D185E/D98H/E176V/E277Q/G131W/G231S/I119V/I121R/I166T/I218V/L300P/L318F/N151K/N90K/P208A/P217A/Q86G/Q94H/R138H/R169H/T345S); assay: Competitive peptide inhibition assay (F1-peptide displacement on T2 cells)
[3] = tested on: MCF-7 cells (HLA-A*0201+, MUC1+); assay: 51Cr-release assay, peptide-induced CTLs from breast cancer patients; format: cell-based, human; details: for Lysis of MCF-7 cells by T cells from cancer samples: all three breast cancer patient samples, E:T 100:1
Text: Figure 7 In vitro stimulation of T cells from HLA-A*0201^+ cancer patients (peri-menopausal) with anchor-optimized and/or glycosylated MUC1 peptides elicited strong CTL activity. (A) PBLs underwent two rounds of stimulation and sorted CD8^+ T cells were subjected to a ^51Cr-release assay. Targets were MCF-7 cells (HLA-A*0201^+, MUC1^+). Effector:target ratio was 100:1 and spontaneous release was less than 25% of complete lysis. The filled triangles designate normal individuals and the open triangles designate breast cancer patients. […] Following two rounds of stimulation, CD8^+ cells were maintained for 24 h on an ELISpot plate. Spot numbers were determined using computer assisted video image analysis by Zellnet Consulting Inc. (FortLee, NJ, USA). There was no evidence of a significance difference in spot numbers between cancer patients and healthy controls (Wilcoxon rank sum test; p > 0.05).
An optimized protocol for the generation of peptide-specific CTLs was developed that relied upon autologous DCs for stimulation. PBMCs (2 × 10^6 cells/mL of AIM V medium) were transferred to a 24-well plate and incubated for 2 h at 37 °C. Non-adherent lymphocytes were washed off with PBS and the adherent cells were cultured in X-VIVO medium containing GM-CSF (1000 U/mL) and IL-4 (1000 U/mL) to generate DCs. […] DCs were analyzed by flow cytometry for appropriate maturation markers. […] Five to seven days later, T cells were analyzed for cytolytic activity by ^51Cr-release assay and interferon gamma production by ELISPOT.
The lytic activity of the in vitro stimulated peptide-specific CTLs was measured by a standard six-hour ^51Cr-release assay. […] After incubation, 30 μL of supernatant was transferred onto LUMA plates (Perkin Elmer, Waltham, MA, USA) and radioactive ^51Cr release was measured in a Topcount Micro-scintillation Counter (Packard Biosciences, Shelton, CT, USA). […]

[4] = tested on: Autologous DCs pulsed with MUC1 peptides; assay: 51Cr-release assay against peptide-pulsed autologous DCs; format: cell-based, human; details: four normal donors, DCs pulsed with 50 μg/mL peptide and PADRE 10 μg/mL, E:T 100:1
Procedure: Autologous DCs pulsed with various MUC1 peptides (50 μg/mL) and PADRE peptide (10 μg/mL) were used as targets. Effector:target ratio was 100:1 and spontaneous release was less than 15% of complete lysis. * p < 0.05 (Student’s t-test) compared to the negative peptide.
The lytic activity of the in vitro stimulated peptide-specific CTLs was measured by a standard six-hour ^51Cr-release assay. The target cells used were MCF-7 breast cancer cell lines which express MUC1^+ and HLA-A*0201, and MDA-MB-231 cells, which are MUC1 negative and express HLA-A*0201. All tumor targets were treated with IFNγ one-day prior to use to up-regulate class I surface expression. Autologous DCs pulsed with the recall peptides, other modified peptides and the native peptide were also used as targets to evaluate cross-reactivity of MUC1-specific CTLs. The targets were labeled with Na^51CrO4 (0.1 mCi/mL) for 2 h, washed 3 times with PBS and re-suspended in T cell medium to a concentration of 2 × 10^4 cells/mL. […] After incubation, 30 μL of supernatant was transferred onto LUMA plates (Perkin Elmer, Waltham, MA, USA) and radioactive ^51Cr release was measured in a Topcount Micro-scintillation Counter (Packard Biosciences, Shelton, CT, USA). Percent specific lysis was calculated according to the following formula: Percent specific lysis = (experimental cpms − spontaneous cpms)/(complete cpms − spontaneous cpms) × 100. […]

[5] = tested on: CD8+ T cells from HLA-A*0201 breast cancer patients; assay: 3H-thymidine proliferation of T cells from breast cancer patients; format: cell-based, human; details: 23 HLA-A*0201 breast cancer patients, DCs pulsed with 10 μg/mL peptide + IL-2, 5 days, vs no-peptide stimulated T cells
Procedure: CD8^+ T cells from the patients were incubated with irradiated autologous DCs pulsed with the various MUC1 peptides (10 μg/mL) plus IL-2 for 5 days and proliferation was assessed by measuring the ^3H-thymidine uptake. T cells from ~38% of the breast cancer patients responded to the selected MUC1 peptides (Figure 6).
Figure 6 T cells from ~38% of the HLA-A2^+ breast cancer patients regardless of their stage, ER/PR and HER2 status responded to the selected MUC1 peptides. 1 × 10^5 T cells were incubated with irradiated […] DCs pulsed with the various MUC1 peptides (10 μg/mL) + IL-2 for 5 days in complete media. Proliferation was assessed by measuring the ^3H-thymidine uptake and is reported as fold increase in counts per minute. The dotted line indicates the two-fold increase in proliferation.

[6] = tested on: MCF-7 cells (MUC1+, HLA-A*0201+); assay: 51Cr-release assay, peptide-induced CTLs from normal donors; format: cell-based, human; details: for Lysis of MCF-7 cells by CTLs elicited with the peptide: 8 normal post-menopausal HLA-A*0201 women, E:T 100:1, 6 h, p = 0.008 vs negative control P11; for % of Donors with at Least 30% Cell Kill: normal donors (n = 8), MCF-7 targets, 30% cell kill considered a response
[7] = target: HLA-A*0201 molecules on T2 cells (Homo sapiens, UniProt P04439, D140Y/D185E/D98H/E176V/E277Q/G131W/G231S/I119V/I121R/I166T/I218V/L300P/L318F/N151K/N90K/P208A/P217A/Q86G/Q94H/R138H/R169H/T345S); assay: MHC stabilization assay on T2 cells (fluorescence index); format: cell-based; details: peptide 0–100 μg/mL, β2-microglobulin 1 μg/mL, 18 h 37 °C, BB7.2 antibody, flow cytometry
Procedure: Figure 1 MUC1 peptides (anchor-optimized and glycosylated) stabilized HLA-A*0201 molecules on T2 cells. Increasing amounts of the MUC1 peptides (0–100 μg/mL) and β2-microglobulin (1 μg/mL) were incubated with T2 cells for 18 h at 37 °C prior to staining with the HLA-A*0201 antibody (clone BB7.2, Pharmingen). Mean fluorescence intensity (MFI) was determined by flow cytometry and the fluorescence index (FI) was calculated from the formula: FI = (FS − FB)/(FT2 − FB) × 100 where FS is the MFI of the test peptides, FB is the non-peptide isotype antibody-stained control MFI, and FT2 is the non-peptide HLA-A*0201 antibody-stained control MFI.
Peptide binding to HLA-A*0201 was analyzed using TAP1- and TAP2-deficient T2 cells which express the HLA-A*0201 allele. […] Binding of the peptides was measured using flow cytometry for upregulation of HLA-A2 surface expression on the T2 cells. […] Mean fluorescence intensity (MFI) was determined and the fluorescence index (FI) was calculated from the formula: FI = (FS − FB)/(FT2 − FB) × 100 where FS is the MFI of the test peptides, FB is the no-peptide isotype antibody-stained control MFI, and FT2 is the no-peptide HLA-A2 antibody-stained control MFI [52].

Fold higher affinity than the known M1.1 and M1.2 MUC1 peptides ([2]; discussion, '8- to 30-fold, respectively'): 8 fold
Molecule: SLAPT(Tn)VHNV [P4, glycosylated anchor-optimized MUC1 peptide]
IFNγ production by CD8+ T cells generated to the peptide [1]: showed production of IFNγ
Lysis of MCF-7 cells by T cells from cancer samples [3]: greater than 30%
Lytic reactivity of CTLs against DCs pulsed with immunizing or native P1 peptide [4]: reacted against the native P1:STAPPVHNV
Patients responding with >2-fold increase in proliferation [5]: 10/23
Lysis of MCF-7 cells by CTLs elicited with the peptide [6]: significant lysis
Percent of donors that will respond (lower limit of 95% CI) ([6]; based on considering 30% cell kill a response): at least 35%
% of Donors with at Least 30% Cell Kill ([6]; E:T 100:1): 75%

IC50 [2]: 0.441 µM
Molecule: SLSYTNPAV [P7]

Molecule: CC(C)C[C@H](NC(=O)[C@@H](N)CO)C(=O)N[C@@H](C)C(=O)N1CCC[C@H]1C(=O)N1CCC[C@H]1C(=O)N[C@H](C(=O)N[C@@H](Cc1c[nH]cn1)C(=O)N[C@@H](CC(N)=O)C(=O)N[C@H](C(=O)O)C(C)C)C(C)C [P15]
IC50 [2]: 0.363 µM

Molecule: STAPT(Tn)VHNV [P2, Tn-glycosylated MUC1 peptide]
IFNγ production by CTLs elicited by the peptide, one individual ([1]; CTLs from one normal individual): strong production of IFNγ
IFNγ production by CD8+ T cells generated to the peptide [1]: showed production of IFNγ
Lysis of MCF-7 cells by CTLs elicited with the peptide, one individual ([6]; CTLs from one normal individual, E:T 100:1): low lysis

IC50 (concentration producing 50% inhibition of F1-peptide binding) ([2]; T2 cells, F1-peptide 100 ng/mL, β2-microglobulin 1 μg/mL, competitor 0–100 μg/mL, flow cytometry MFI, Prism): 10.13 µg/mL
Binding to HLA-A*0201 on T2 cells by fluorescence index (FI) [7]: bound moderately
Molecule: STAPPVHNV [P1, native MUC1 degenerate tandem repeat peptide]
Affinity class of binder to HLA-A*0201 ([2]; scored from IC50 in the competition assay on T2 cells): medium (“medium affinity binders” with IC50 of ≥to 5 μg/mL and <15 μg/mL)
Lysis of MCF-7 cells by T cells from cancer samples [3]: greater than 30%
Activation of lytic T cells from breast cancer patients ([3]; three breast cancer patients, MCF-7 targets): effectively activated lytic T cells from all three breast cancer patients
Patients responding with >2-fold increase in proliferation [5]: 8/23
Lysis of MCF-7 cells by CTLs elicited with the peptide [6]: did not elicit lytic T cells

IC50 [2]: 11.1 µM
Molecule: LLLLTVLTV [P5]

Molecule: ALGSTAPPV [P9, unmodified native MUC1 degenerate TR peptide, reference compound]
% of Donors with at Least 30% Cell Kill ([6]; E:T 100:1): 12.50%
